Laboratory results from ChEMBL document CHEMBL4627246, “Pyroglutamide-Based P2X7 Receptor Antagonists Targeting Inflammatory Bowel Disease” (J Med Chem, 2020).

Key:
Type in all cases: cell-based
HCC 2998 = experiment: Cytotoxicity against human HCC2998 cells assessed as effect on cell growth at 10 uM incubated for 48 hrs by sulforhodamine B assay; settings: hcc 2998, 48 h
HCT-116 = experiment: Cytotoxicity against human HCT116 cells assessed as effect on cell growth at 10 uM incubated for 48 hrs by sulforhodamine B assay; settings: hct-116, 48 h
HT-29 = experiment: Cytotoxicity against human HT-29 cells assessed as effect on cell growth at 10 uM incubated for 48 hrs by sulforhodamine B assay; settings: ht-29, 48 h
SF-539 = experiment: Cytotoxicity against human SF539 cells assessed as effect on cell growth at 10 uM incubated for 48 hrs by sulforhodamine B assay; settings: sf-539, 48 h
SNB-19 = experiment: Cytotoxicity against human SNB19 cells assessed as effect on cell growth at 10 uM incubated for 48 hrs by sulforhodamine B assay; settings: snb-19, 48 h
MDA-MB-435 = experiment: Cytotoxicity against human MDA-MB-435 cells assessed as effect on cell growth at 10 uM incubated for 48 hrs by sulforhodamine B assay; settings: mda-mb-435, 48 h
SK-MEL-2 = experiment: Cytotoxicity against human SK-MEL-2 cells assessed as effect on cell growth at 10 uM incubated for 48 hrs by sulforhodamine B assay; settings: sk-mel-2, 48 h
UACC-62 = experiment: Cytotoxicity against human UACC62 cells assessed as effect on cell growth at 10 uM incubated for 48 hrs by sulforhodamine B assay; settings: uacc-62, 48 h
OVCAR-3 = experiment: Cytotoxicity against human OVCAR3 cells assessed as effect on cell growth at 10 uM incubated for 48 hrs by sulforhodamine B assay; settings: ovcar-3, 48 h
OVCAR-5 = experiment: Cytotoxicity against human OVCAR5 cells assessed as effect on cell growth at 10 uM incubated for 48 hrs by sulforhodamine B assay; settings: ovcar-5, 48 h
OVCAR-8 = experiment: Cytotoxicity against human OVCAR8 cells assessed as effect on cell growth at 10 uM incubated for 48 hrs by sulforhodamine B assay; settings: ovcar-8, 48 h
786-0 = experiment: Cytotoxicity against human 786-0 cells assessed as effect on cell growth at 10 uM incubated for 48 hrs by sulforhodamine B assay; settings: 786-0, 48 h
A498 = experiment: Cytotoxicity against human A498 cells assessed as effect on cell growth at 10 uM incubated for 48 hrs by sulforhodamine B assay; settings: a498, 48 h
RXF 393 = experiment: Cytotoxicity against human RXF393 cells assessed as effect on cell growth at 10 uM incubated for 48 hrs by sulforhodamine B assay; settings: rxf 393, 48 h
TK-10 = experiment: Cytotoxicity against human TK10 cells assessed as effect on cell growth at 10 uM incubated for 48 hrs by sulforhodamine B assay; settings: tk-10, 48 h
UO-31 = experiment: Cytotoxicity against human UO31 cells assessed as effect on cell growth at 10 uM incubated for 48 hrs by sulforhodamine B assay; settings: uo-31, 48 h
DU-145 = experiment: Cytotoxicity against human DU145 cells assessed as effect on cell growth at 10 uM incubated for 48 hrs by sulforhodamine B assay; settings: du-145, 48 h
MCF7 = experiment: Cytotoxicity against human MCF7 cells assessed as effect on cell growth at 10 uM incubated for 48 hrs by sulforhodamine B assay; settings: mcf7, 48 h
T47D = experiment: Cytotoxicity against human T47D cells assessed as effect on cell growth at 10 uM incubated for 48 hrs by sulforhodamine B assay
MDA-MB-468 = experiment: Cytotoxicity against human MDA-MB-468 cells assessed as effect on cell growth at 10 uM incubated for 48 hrs by sulforhodamine B assay; settings: mda-mb-468, 48 h

Measured: Activity

CN(Cc1ccccc1)C(=O)[C@@H]1CCC(=O)N1Cc1ccc(Cl)cc1Cl
Non-Toxic: HCC 2998 | HCT-116 | HT-29 | SF-539 | SNB-19 | MDA-MB-435 | SK-MEL-2 | UACC-62 | OVCAR-3 | OVCAR-5 | OVCAR-8 | 786-0 | A498 | RXF 393 | TK-10 | UO-31 | DU-145 | MCF7 | T47D | MDA-MB-468
